The source of these data is patent publication US20090012103A1, “SUBSTITUTED HETEROCYCLIC COMPOUNDS” (priority 2007, published 2009).

The target in this assay is wild-type human cardiac sodium channel, hNav1.5 (Homo sapiens, UniProt Q14524). The experiment in a line: Late INa screening assay (late sodium current, PatchXpress whole cell patch clamp). It counts as cell-based. The conditions noted are these: compound at 10 μM; read-out: Late INa % blk.
Sequence of wild-type human cardiac sodium channel, hNav1.5 (Q14524 whole entry): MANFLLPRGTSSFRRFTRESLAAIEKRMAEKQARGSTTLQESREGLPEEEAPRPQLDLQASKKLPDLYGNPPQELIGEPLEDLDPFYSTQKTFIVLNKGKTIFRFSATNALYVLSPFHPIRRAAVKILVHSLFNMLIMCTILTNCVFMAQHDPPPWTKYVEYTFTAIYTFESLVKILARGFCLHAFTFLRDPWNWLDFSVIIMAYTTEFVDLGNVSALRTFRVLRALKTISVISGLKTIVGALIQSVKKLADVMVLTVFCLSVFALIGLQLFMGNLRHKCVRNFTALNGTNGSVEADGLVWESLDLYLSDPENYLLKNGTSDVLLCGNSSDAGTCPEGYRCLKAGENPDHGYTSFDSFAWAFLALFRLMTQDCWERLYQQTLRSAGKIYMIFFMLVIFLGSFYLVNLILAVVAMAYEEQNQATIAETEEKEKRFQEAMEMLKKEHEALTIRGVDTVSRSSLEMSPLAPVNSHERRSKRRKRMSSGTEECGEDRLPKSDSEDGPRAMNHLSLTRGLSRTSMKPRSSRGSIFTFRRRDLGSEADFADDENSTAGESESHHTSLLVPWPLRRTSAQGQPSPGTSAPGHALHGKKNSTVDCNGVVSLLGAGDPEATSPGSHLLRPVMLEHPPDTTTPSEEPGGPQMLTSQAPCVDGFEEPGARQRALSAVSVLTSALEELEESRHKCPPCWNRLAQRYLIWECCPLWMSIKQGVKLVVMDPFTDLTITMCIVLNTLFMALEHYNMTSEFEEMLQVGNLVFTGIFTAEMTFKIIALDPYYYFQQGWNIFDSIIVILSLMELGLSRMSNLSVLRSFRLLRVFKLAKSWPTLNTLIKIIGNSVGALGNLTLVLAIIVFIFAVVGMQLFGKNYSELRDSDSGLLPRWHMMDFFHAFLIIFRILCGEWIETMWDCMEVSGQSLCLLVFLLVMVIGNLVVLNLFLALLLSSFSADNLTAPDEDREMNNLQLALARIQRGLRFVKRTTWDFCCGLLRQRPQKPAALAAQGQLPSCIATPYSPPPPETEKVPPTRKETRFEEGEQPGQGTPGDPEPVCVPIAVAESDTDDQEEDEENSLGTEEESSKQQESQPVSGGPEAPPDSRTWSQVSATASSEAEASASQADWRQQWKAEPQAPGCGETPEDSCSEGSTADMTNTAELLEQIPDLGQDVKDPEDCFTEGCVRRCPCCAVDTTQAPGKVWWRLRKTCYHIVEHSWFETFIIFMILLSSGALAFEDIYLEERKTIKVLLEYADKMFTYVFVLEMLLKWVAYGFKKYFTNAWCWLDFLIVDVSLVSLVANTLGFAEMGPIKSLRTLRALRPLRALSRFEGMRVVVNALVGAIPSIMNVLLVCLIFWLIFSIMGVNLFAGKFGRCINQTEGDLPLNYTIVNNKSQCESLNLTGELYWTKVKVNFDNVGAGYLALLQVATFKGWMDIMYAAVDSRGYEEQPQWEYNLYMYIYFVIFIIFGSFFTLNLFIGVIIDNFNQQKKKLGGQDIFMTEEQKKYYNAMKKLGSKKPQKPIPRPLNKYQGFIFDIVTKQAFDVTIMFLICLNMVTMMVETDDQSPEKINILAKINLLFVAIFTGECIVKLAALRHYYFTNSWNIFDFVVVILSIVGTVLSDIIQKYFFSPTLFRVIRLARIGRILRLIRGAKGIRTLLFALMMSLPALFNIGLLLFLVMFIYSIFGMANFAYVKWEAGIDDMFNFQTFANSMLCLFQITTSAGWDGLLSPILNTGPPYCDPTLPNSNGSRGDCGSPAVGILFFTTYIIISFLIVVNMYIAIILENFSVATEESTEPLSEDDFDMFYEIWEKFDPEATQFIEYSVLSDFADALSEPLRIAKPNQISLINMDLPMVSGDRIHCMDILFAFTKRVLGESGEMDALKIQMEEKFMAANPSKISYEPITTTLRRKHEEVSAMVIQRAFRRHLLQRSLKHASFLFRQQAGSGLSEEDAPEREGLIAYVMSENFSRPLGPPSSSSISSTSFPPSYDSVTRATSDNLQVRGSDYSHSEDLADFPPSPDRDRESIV

Turning to `CCOC(=O)C1=C(C)NC2=C(C(=O)CC(C)(C)C2)C1c1cccc(C(=O)O)c1` (centres unmarked) [PT-132, 3-(3-(ethoxycarbonyl)-2,7,7-trimethyl-5-oxo-1,4,5,6,7,8-hexahydroquinolin-4-yl)benzoic acid], the inhibition at 10 µM is -5.3%. The result for `CCOC(=O)C1=C(C)NC2=C(C(=O)CCC2)C1c1c(OC)ccc2ccccc12` (centres unmarked) [PT-134, ethyl 4-(2-methoxynaphthalen-1-yl)-2-methyl-5-oxo-1,4,5,6,7,8-hexahydroquinoline-3-carboxylate] reads 15.5%; that for `CCOC(=O)C1=C(CC)NC2=C(C(=O)CCC2)C1c1ccc(OC)c2ccccc12` (centres unmarked) [PT-136, ethyl 2-ethyl-4-(4-methoxynaphthalen-1-yl)-5-oxo-1,4,5,6,7,8-hexahydroquinoline-3-carboxylate], 45.2%; that for `CCOC(=O)C1=C(C)NC2=C(C(=O)CCC2)C1c1ccc2cc(OC)ccc2c1` (centres unmarked) [PT-137, ethyl 4-(6-methoxynaphthalen-2-yl)-2-methyl-5-oxo-1,4,5,6,7,8-hexahydroquinoline-3-carboxylate], 25.3%.

`CCOC(=O)C1=C(C)NC2=C(C(=O)CCC2)C1c1ccc(OC)c2ccc(OC)cc12` (centres unmarked) [PT-138, ethyl 4-(4,7-dimethoxynaphthalen-1-yl)-2-methyl-5-oxo-1,4,5,6,7,8-hexahydroquinoline-3-carboxylate]: the inhibition at 10 µM was 34.1%. The result for `CCOC(=O)C1=C(C)NC2=C(C(=O)CCC2)C1c1ccc(N(C)C)c2ccccc12` (centres unmarked) [PT-139, ethyl 4-(4-(dimethylamino)naphthalen-1-yl)-2-methyl-5-oxo-1,4,5,6,7,8-hexahydroquinoline-3-carboxylate] reads 21.8%.

On to `CCOC(=O)C1=C(C)NC2=C(C(=O)CCC2(C)C)C1c1ccc(Cl)s1` (centres unmarked) [PT-146, ethyl 4-(5-chlorothiophen-2-yl)-2,8,8-trimethyl-5-oxo-1,4,5,6,7,8-hexahydroquinoline-3-carboxylate], for which the inhibition at 10 µM was found to be 31.2%. `CCCC1=C(C(=O)OCC)C(c2ccsc2)C2=C(CCCC2=O)N1` (centres unmarked) [PT-148, ethyl 5-oxo-2-propyl-4-(thiophen-3-yl)-1,4,5,6,7,8-hexahydroquinoline-3-carboxylate]: the inhibition at 10 µM came out at 7.6%.

Turning to `CCCC1=C(C(=O)OCC)C(c2ccsc2)C2=C(CC(C)(C)CC2=O)N1` (centres unmarked) [PT-151, ethyl 7,7-dimethyl-5-oxo-2-propyl-4-(thiophen-3-yl)-1,4,5,6,7,8-hexahydroquinoline-3-carboxylate], the inhibition at 10 µM amounted to 35%.

As for `CCCC1=C(C(=O)OCC)C(c2ccsc2)C2=C(CC(C(C)C)CC2=O)N1` (centres unmarked) [PT-152, ethyl 7-isopropyl-5-oxo-2-propyl-4-(thiophen-3-yl)-1,4,5,6,7,8-hexahydroquinoline-3-carboxylate], the inhibition at 10 µM stood at 41.2%.

In the case of `COCCOC(=O)C1=C(C)NC2=C(C(=O)CC(C)(C)C2)C1c1ccc(Oc2ccccc2)cc1` (centres unmarked) [PT-156, 2-methoxyethyl 2,7,7-trimethyl-5-oxo-4-(4-phenoxyphenyl)-1,4,5,6,7,8-hexahydroquinoline-3-carboxylate], the inhibition at 10 µM came out at 36.6%. With `CC1=C(C(=O)OC(C)C)C(c2cccc3ccccc23)C2=C(CCCC2=O)N1` (centres unmarked) [PT-158, isopropyl 2-methyl-4-(naphthalen-1-yl)-5-oxo-1,4,5,6,7,8-hexahydroquinoline-3-carboxylate], the inhibition at 10 µM stood at 38.7%.

For `CC1=C(C(=O)OC(C)C)C(c2cc(-c3ccccc3)cs2)C2=C(CC(C)(C)CC2=O)N1` (centres unmarked) [PT-159, isopropyl 2,7,7-trimethyl-5-oxo-4-(4-phenylthiophen-2-yl)-1,4,5,6,7,8-hexahydroquinoline-3-carboxylate], the inhibition at 10 µM is 46.3%. `CC1=C(C(=O)OC(C)C)C(c2cnn(-c3ccccc3C)c2C)C2=C(CC(C)(C)CC2=O)N1` (centres unmarked) [PT-161, isopropyl 2,7,7-trimethyl-4-(5-methyl-1-o-tolyl-1H-pyrazol-4-yl)-5-oxo-1,4,5,6,7,8-hexahydroquinoline-3-carboxylate]: the inhibition at 10 µM is 6.8%.
